Tests used:
Format in all cases: in vivo
[1] = tested on: arrowleaf sida (Sida rhombifolia); assay: Test F pre-/postemergence: arrowleaf sida
Outline: (§1)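 Seeds were sown in silt loam soil and sprayed preemergence with test chemical in a non-phytotoxic solvent mixture containing surfactant; postemergence treatments went onto plants 2 to 18 cm tall (1- to 4-leaf stage) grown in peat moss/vermiculite medium. After 14 to 21 days in a greenhouse, injury was rated visually against controls, 0 (no effect) to 100 (complete control).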

[2] = tested on: crabgrass, Brazil (Brazilian crabgrass, Digitaria horizontalis); assay: Test F pre-/postemergence: crabgrass, Brazil
Outline: as §1

[3] = tested on: Russian thistle (Salsola kali); assay: Test C pre-/postemergence: Russian thistle; conditions: Preemergence
Outline: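 Visual injury scored 0–100 (100 = complete control) against untreated controls after 13–15 greenhouse days. Surfactant-containing solvent formulations applied either to soil after sowing (loam/sand) or over 1- to 4-leaf plants, 2–18 cm tall.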

kochia (Kochia scoparia) = assay: Test D pre-/postemergence: kochia
Outline: (§2)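 We sprayed chemicals in a surfactant-containing solvent onto silt loam at planting (preemergence) and onto 1- to 4-leaf seedlings (postemergence). Fourteen to 21 days later, each species was rated visually from 0 to 100 relative to controls.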

[4] = tested on: radish, wild (wild radish, Raphanus raphanistrum); assay: Test D pre-/postemergence: radish, wild
Outline: as §2

[5] = Postemergence, 8 g ai/ha, scale 0 to 100
[6] = Postemergence, 16 g ai/ha, scale 0 to 100
[7] = Postemergence, 31 g ai/ha, scale 0 to 100
[8] = Postemergence, 62 g ai/ha, scale 0 to 100
[9] = Postemergence, 125 g ai/ha, scale 0 to 100
[10] = Preemergence, 16 g ai/ha, scale 0 to 100, 0 no effect, 100 complete control
[11] = Preemergence, 31 g ai/ha, scale 0 to 100, 0 no effect, 100 complete control
[12] = Preemergence, 62 g ai/ha, scale 0 to 100
[13] = Preemergence, 125 g ai/ha, scale 0 to 100
[14] = 125 g ai/ha, scale 0 to 100, 0 no effect, 100 complete control
[15] = 250 g ai/ha, scale 0 to 100, 0 no effect, 100 complete control
[16] = Postemergence, 31 g ai/ha, scale 0 to 100 (0 no effect, 100 complete control)
[17] = Postemergence, 62 g ai/ha, scale 0 to 100 (0 no effect, 100 complete control)
[18] = Postemergence, 125 g ai/ha, scale 0 to 100, 0 no effect, 100 complete control
[19] = Preemergence, 250 g ai/ha, scale 0 to 100
[20] = 62 g ai/ha, scale of 0 to 100, 0 is no effect, 100 is complete control

Row | Structure (SMILES) | Plant response rating, Arrowleaf Sida [1, 10] | Plant response rating, Arrowleaf Sida [1, 11] | Plant response rating, Arrowleaf Sida [1, 12] | Plant response rating, Arrowleaf Sida [1, 13] | Plant response rating, Russian Thistle [3, 14] | Plant response rating, Russian Thistle [3, 15] | Plant response rating: Kochia (kochia (Kochia scoparia); [16]) | Plant response rating: Kochia (kochia (Kochia scoparia); [17]) | Plant response rating: Kochia (kochia (Kochia scoparia); [18]) | Plant response rating, Kochia (kochia (Kochia scoparia); [6]) | Plant response rating, Kochia (kochia (Kochia scoparia); [10]) | Plant response rating, Kochia (kochia (Kochia scoparia); [11]) | Plant response rating, Kochia (kochia (Kochia scoparia); [12]) | Plant response rating, Kochia (kochia (Kochia scoparia); [13]) | Plant response rating: Radish, Wild [4, 16] | Plant response rating: Radish, Wild [4, 17] | Plant response rating: Radish, Wild [4, 18] | Plant response rating, Radish, Wild [4, 6] | Plant response rating, Radish, Wild [4, 10] | Plant response rating, Radish, Wild [4, 11] | further results
1 | CCOc1nn(-c2ccc(F)cc2)nc1Cc1ccnc(C(F)(F)F)c1 [Compound 196, 4-[[5-ethoxy-2-(4-fluorophenyl)-2H-1,2,3-triazol-4-yl]methyl]-2-(trifluoromethyl)pyridine] | 0 | 15 | 15 | 15 | 90 | 90 | 85 | 90 | 90 | 70 | 35 | 70 | 100 | 100 | 100 | 100 | 100 | 65 | 50 | 20 | Plant response rating, Arrowleaf Sida [1, 5]: 80; Plant response rating, Arrowleaf Sida [1, 6]: 90; Plant response rating, Arrowleaf Sida [1, 7]: 90; Plant response rating, Arrowleaf Sida [1, 8]: 95; Plant response rating, Arrowleaf Sida [1, 9]: 95; Plant response rating, Arrowleaf Sida ([1]; Preemergence, 8 g ai/ha, scale 0 to 100, 0 no effect, 100 complete control): 0; Plant response rating, Crabgrass, Brazil [2, 5]: 60; Plant response rating, Crabgrass, Brazil [2, 6]: 75; Plant response rating, Crabgrass, Brazil [2, 7]: 85; Plant response rating, Crabgrass, Brazil [2, 8]: 95; Plant response rating, Crabgrass, Brazil [2, 9]: 95; Plant response rating, Russian Thistle ([3]; 31 g ai/ha, scale 0 (no effect) to 100 (complete control)): 90; Plant response rating, Russian Thistle ([3]; 62 g ai/ha, scale 0 to 100, 0 no effect, 100 complete control): 90; Plant response rating, Radish, Wild [4, 12]: 70; Plant response rating, Radish, Wild [4, 13]: 100
2 | Cc1nn(-c2ccc(F)cc2F)nc1Oc1ccnc(C(F)(F)F)c1 [Compound 146] | 0 | 0 | 0 | 0 | 80 | 95 |  |  |  |  |  |  |  |  |  |  |  |  |  |  | Plant response rating, Arrowleaf Sida [1, 19]: 10; Plant response rating, Russian Thistle ([3]; 31 g ai/ha, scale of 0 to 100, 0 is no effect, 100 is complete control): 0; Plant response rating, Russian Thistle [3, 20]: 0
3 | Cc1nn(-c2ccc(C(F)(F)F)c(F)c2)nc1Oc1ccnc(C(F)(F)F)c1 [Compound 148] | 0 | 0 | 0 | 0 | 95 | 95 | 85 | 85 | 85 | 75 | 10 | 20 | 10 | 75 | 100 | 100 | 100 | 90 | 10 | 20 | Plant response rating, Arrowleaf Sida [1, 19]: 0; Plant response rating, Crabgrass, Brazil [2, 10]: 100; Plant response rating, Crabgrass, Brazil [2, 11]: 100; Plant response rating, Crabgrass, Brazil [2, 12]: 100; Plant response rating, Crabgrass, Brazil [2, 13]: 100; Plant response rating, Crabgrass, Brazil [2, 19]: 100; Plant response rating, Russian Thistle [3, 20]: 85; Plant response rating, Radish, Wild [4, 12]: 100; Plant response rating, Radish, Wild [4, 13]: 100
